Laboratory results taken from patent US20090076050A1, “SYNERGISTIC TUMOR-KILLING EFFECT OF RADIATION AND BERBERINE COMBINED TREATMENT IN LUNG CANCER” (CHUNG SHAN MEDICAL U., priority 2007, published 2009).

Key:
[1] = system: Lewis lung carcinoma (LLC); assay: Lewis lung carcinoma (LLC) tumor xenograft growth in mice; type: in vivo, C57BL/6 mice; conditions: for tumor volume relative to that before the treatment: LLC in C57BL/6 mice, p<0.001
Description: The application of the additive cytotoxicity of IR combined with berberine in cancer treatment was further evidenced in an in vivo Lewis lung carcinoma (LLC) model in mice (Camphausen K, et al. Cancer Res 2001; 61:2207-11). Male C57BL/6 mice aged 4-6 weeks (National Taiwan University Animal Center, Taiwan) were used. To form a tumor xenograft, Lewis lung cells (2×10^6) were injected s.c. into the right hind limb. Animals were randomized into six groups: control, irradiation (IR) alone, berberine (1.0, 2.0 mg/kg) alone, and IR combined with berberine (1.0, 2.0 mg/kg). For tumor irradiation, mice were immobilized in a customized harness that exposed the right hind leg while shielding the remainder of the body by 3.5 cm of lead. Mice were exposed to a single dose of 8 Gy. Berberine was supplemented (1.0, 2.0 mg/kg, i.p.) to animals 1 day before the radiation exposure, and then twice a week for 4 weeks. To obtain tumor growth curves, three orthogonal tumor diameters were measured every 4-day intervals with a vernier caliper, and the mean values were calculated. The animals were killed (n=5 per group) at the indicated time points, and the primary tumor was dissected and examined. Primary tumor growth delay was measured by calipers in two dimensions, and the volumes were calculated according to the formula: tumor volume=(width) 2×length×0.52. LLC cells were injected s.c. into the right thighs of C57BL/6 mice 10 days before the IR therapy. The animals were randomized into six treatment groups: untreated, 8 Gy radiation in one dose, berberine alone (1.0, 2.0 mg/kg i.p., twice weekly), and berberine combined with IR treatment (FIG. 6A). Berberine was supplemented to the indicated groups one day before the IR treatment and continued for 4 weeks. The tumor volume at the primary site of each group was measured before treatment, and the average tumor volume was designated as T0. When the animals were sacrificed at the end of experiment, the xenografts were removed, and the tumor volume was determined and presented as fold of T0. The blood samples were collected for biochemical analysis. […] Berberine at 1.0 and 2.0 mg/kg, as used with IR, has shrunk the tumor volume down to approximately 48% and 22% of that before the treatment (FIG. 6C, p<0.001). Furthermore, immunohistochemistry was performed to detect the level of beclin-1 and bcl-2 proteins in the xenograft. Primary tumors were fixed and then embedded in paraffin. The sections were stained with anti-bcl-2 mouse-monoclonal antibody (1:100, Santa Cruz Biotechnology, Santa Cruz, Calif.) or anti-beclin-1 rabbit polyclonal antiserum (1:50, Santa Cruz Biotechnology, Santa Cruz, Calif.). The sections were then incubated with blocking buffer for 40 min at RT followed by incubation with the primary antibody over night at 4° C. […]

[2] = system: A549 cells; assay: acridine orange staining of acidic vesicular organelles (microscopy and FACS); type: cell-based, human; conditions: for proportion of acridine orange-positive cells: 24 h, IR alone 12.5%
Description: Autophagic cell death has been recognized as programmed cell death type II, it has been detected in a variety of cancer cells treated with radiation or chemotherapy. Therefore, it had been examined whether IR treatment combined with berberine induced autophagic cell death in A549 cells by electron microscopic analysis (FIG. 4A). Cells were harvested by trypsinization, and fixed with 2% glutaraldehyde, 4% paraformaldehyde and 1% tannic acid in 0.1 mol/L cacodylate buffer, pH 7.4, for 25 h. The cells were stained with an osmium-thiocarbohydrazide-osmium (OTO). After staining, the cells were dehydrated in a graded series of 70% to 100% EtOH and then immersed serially with 1:1 hexamethyldisilazane and absolute ethanol. One micrometer thin sections were cut, and the gels were coated with 500 Å of gold in a JEOL Vacuum sputter coater and viewed in a JEOL […] electron microscope with scanning attachment (JEOL, Tokyo, Japan). […] Autophagy is characterized by the development of AVOs, which is measured by vital staining of acridine orange. Acridine orange (Polysciences, Warrington, Pa.) was added to cells at a final concentration of 1 μg/mL for a period of 15 min. Pictures were taken with a fluorescent microscope (Nikon TE-300) equipped with a 490-nm band-pass blue excitation filters, a 500-nm dichroic mirror, and a 515-nm-long pass-barrier filter. To quantitate acidic vesicular organelles, Stained cells were collected for the FACScan (Becton Dickinson, San Jose, Calif.) using CellQuest software (Becton Dickinson). Acridine orange-positive cells with bright red fluorescence were detected among A549 cells 24 h after co-treated with berberine and IR (6 Gy), whereas they were sparse among non-treated cells or irradiated cells (FIG. 4B). […] FIG. 4C).

[3] = system: A549 cells; assay: mitochondrial membrane potential by JC-1 flow cytometry; type: cell-based, human; conditions: 1.0, 2.5, 5.0 and 10 μM berberine combined with irradiation (6 Gy), 24 h
Description: Berberine has been reported to induce cell death in several cancer cells via mitochondrial disruption (Lin J P, et al. World J Gastroenterol 2006; 12:21-28.). Therefore, mitochondrial membrane potential was next measured with JC-1. Mitochondria membrane potential (Δ Ψm), the lipophilic cationic probe fluorochrome JC-1 (Invitrogen) was used. […] After a treatment of radiation (6 Gy) for 24 h in the absence or presence of 1.0-10 μM berberine, cells were rinsed with DMEM, and JC-1 (5 μmol/L) was loaded. Determination of Δ Ψm was also carried out with a FACScan Flow Cytometer. […] It has been reported that depolarized mitochondria would move into autophagic vacuoles in response to appropriate stimulation; thus, mitochondria dysfunction may be a point of overlap between apoptotic and autophagocytic processes (Bras M, et al. Biochemistry (Mosc) 2005; 70:231-39). […] On the other hand, beclin-1 siRNA and 3-MA (autophagy inhibitor) blocked the cell death induced by 5.0 μM berberine combined with 6 Gy IR (p<0.001). As a consequence, berberine sensitized A549 cells to IR damage via inducing autophagic cell death.

[4] = system: bcl-2; assay: immunohistochemistry of bcl-2 in xenograft; type: in vivo, C57BL/6 mice
Description: The application of the additive cytotoxicity of IR combined with berberine in cancer treatment was further evidenced in an in vivo Lewis lung carcinoma (LLC) model in mice (Camphausen K, et al. Cancer Res 2001; 61:2207-11). Male C57BL/6 mice aged 4-6 weeks (National Taiwan University Animal Center, Taiwan) were used. To form a tumor xenograft, Lewis lung cells (2×10^6) were injected s.c. into the right hind limb. Animals were randomized into six groups: control, irradiation (IR) alone, berberine (1.0, 2.0 mg/kg) alone, and IR combined with berberine (1.0, 2.0 mg/kg). For tumor irradiation, mice were immobilized in a customized harness that exposed the right hind leg while shielding the remainder of the body by 3.5 cm of lead. Mice were exposed to a single dose of 8 Gy. […] To obtain tumor growth curves, three orthogonal tumor diameters were measured every 4-day intervals with a vernier caliper, and the mean values were calculated. […] Primary tumor growth delay was measured by calipers in two dimensions, and the volumes were calculated according to the formula: tumor volume=(width) 2×length×0.52. […] The tumor volume at the primary site of each group was measured before treatment, and the average tumor volume was designated as T0. When the animals were sacrificed at the end of experiment, the xenografts were removed, and the tumor volume was determined and presented as fold of T0. […]

## COc1ccc2cc3[n+](cc2c1OC)CCc1cc2c(cc1-3)OCO2 [berberine, Berberine]
[1]; berberine 1.0 mg/kg i.p. twice weekly for 4 weeks with IR 8 Gy
  tumor volume relative to that before the treatment: approximately 48%
[1]; berberine 2.0 mg/kg i.p. twice weekly for 4 weeks with IR 8 Gy
  tumor volume relative to that before the treatment: ~22%
[1]; berberine (1.0, 2.0 mg/kg) combined with IR 8 Gy, LLC in mice (FIG. 6B)
  tumor size in tumor growth curves: considerable reduced size
[1]; berberine alone (1.0, 2.0 mg/kg i.p., twice weekly), LLC in mice
  growth of the xenograft: slowed down
[2]; 6 Gy irradiation combined with 5.0 μM berberine
  proportion of acridine orange-positive cells: 50.3%
[2]; 6 Gy irradiation combined with 10 μM berberine
  proportion of acridine orange-positive cells: 62.6%
[2]; 24 h after co-treatment with berberine and IR (6 Gy)
  acridine orange-positive cells with bright red fluorescence (microscopy): detected
[3]
  mitochondrial membrane potential (JC-1): great loss of membrane potential
[4]; berberine alone groups
  bcl-2 protein expression in xenograft: reduced
[4]; co-treatment groups (berberine + IR)
  bcl-2 protein expression in xenograft: reduced
